{"source": "patent US12053452B2", "about": "(priority 2021, dated 2024)", "key": {"BTBR mice [1]": {"tested_on": "BTBR mice", "test": "Novelty preference test, BTBR", "assay_type": "in vivo", "conditions": "all tested doses IP", "experimental": "This assay was conducted in adult male C57 and BTBR mice (n=6 per group) in a dedicated conditioning room where ambient light, sound, and human contact were tightly controlled. Social preference chambers consist of two polycarbonate boxes (13.5 cm wide×22.5 cm tall×31.0 cm deep), floored with rough-textured black ABS plastic, and connected to one another by a 1.25″ PVC T-junction. An infrared photobeam emitter/detector array is mounted at each intersection of the T-junction and each preference compartment, and as a mouse traversed the apparatus, it would break the photobeam upon entry to or exit from each preference compartment. Beam breaks started or stopped a counter on an interfaced computer, allowing automated collection of time spent in each compartment. At the end of each test, data were reported as time (in seconds) spent in each compartment, the number of entries into each compartment, and the average time spent in each compartment following an entry. Social preference tests were conducted in an iterative manner, with each test subject completing four distinct phases as described below. Between testing sessions, chambers were sanitized by wiping the insides with a disinfectant product provided by the UAMS Department of Laboratory Animal Medicine. […]"}, "C57 mice [2]": {"tested_on": "C57 mice", "test": "Sociability test, C57", "assay_type": "in vivo", "experimental": "(§1) This assay was conducted in adult male C57 and BTBR mice (n=6 per group) in a dedicated conditioning room where ambient light, sound, and human contact were tightly controlled. Social preference chambers consist of two polycarbonate boxes (13.5 cm wide×22.5 cm tall×31.0 cm deep), floored with rough-textured black ABS plastic, and connected to one another by a 1.25″ PVC T-junction. An infrared photobeam emitter/detector array is mounted at each intersection of the T-junction and each preference compartment, and as a mouse traversed the apparatus, it would break the photobeam upon entry to or exit from each preference compartment. Beam breaks started or stopped a counter on an interfaced computer, allowing automated collection of time spent in each compartment. At the end of each test, data were reported as time (in seconds) spent in each compartment, the number of entries into each compartment, and the average time spent in each compartment following an entry. Social preference tests were conducted in an iterative manner, with each test subject completing four distinct phases as described below. Between testing sessions, chambers were sanitized by wiping the insides with a disinfectant product provided by the UAMS Department of Laboratory Animal Medicine. At the end of the week (upon completion of all phases of the procedure), each apparatus was disassembled and all parts were sanitized. No food or water were available during social preference sessions, but were available in the home cage immediately afterwards.\nA single sociability session occurred the day after the novelty preference test, where one compartment contained a wire mesh cup with a dummy mouse inside while the other compartment contained a male NIH Swiss stranger mouse inside the previously empty cup. […] The position of the dummy mouse (left or right compartment) remained the same for each subject as during the novelty test the day before, thereby counterbalancing the position of the stranger mouse across subjects. NIH Swiss stranger mice were similar in mass and appearance to the dummy PVC mice, and were housed separately from the experimental subjects (C57 and BTBR mice) in the colony facility. The first time the experimental subjects ever encountered the stranger mice was when they entered the compartment where they were contained. During this session, mice were weighed, administered the same injection as the day before, and returned to their home cage for a 30 min pretreatment period. Mice were then introduced into the T-junction and allowed to explore both preference compartments for 15 minutes. Sociability tests always occurred on Wednesdays or Thursdays to prevent any weekend testing."}, "C57 mice [3]": {"tested_on": "C57 mice", "test": "Social novelty preference test, C57", "assay_type": "in vivo", "experimental": "as §1\nA single social novelty preference session occurred the day after the sociability test, where one compartment contained a wire mesh cup with the same NIH Swiss mouse from the previous day inside (referred to now as the “familiar” mouse) while the other compartment contained a new male NIH Swiss stranger mouse inside the cup which previously contained the dummy mouse during the sociability test. […] The position of the now familiar NIH Swiss mouse (left or right compartment) remained the same for each subject as during the sociability test the day before, thereby counterbalancing the position of the new NIH Swiss stranger mouse across subjects. As before, the new NIH Swiss stranger mice were housed separately from the experimental subjects (C57 and BTBR mice) in the colony facility, and the first time the experimental subjects ever encountered them was when they entered the compartment where they were contained. During this session, mice were weighed, administered the same injection as the day before, and returned to their home cage for a 30 min pretreatment period. Mice were then introduced into the T-junction and allowed to explore both preference compartments for 15 minutes. Social novelty tests always occurred on Thursdays or Fridays to prevent any weekend testing."}, "BTBR mice [4]": {"tested_on": "BTBR mice", "test": "Radiotelemetry of core temperature, BTBR", "assay_type": "in vivo", "experimental": "(§2) The radiotelemetry assay was conducted in adult male C57 and BTBR mice (n=6 per group) in a dedicated testing room where ambient light, sound, and human contact were tightly controlled.\n(§3) Prior to surgical implantation of radiotelemetry probes, mice received 3 mg/kg meloxicam (IP), and anesthesia was induced with 4% inhaled isoflurane and maintained with 1-3% isoflurane (as needed) throughout the procedure at a flow rate of 1.5 litres/minute. The abdominal area of each animal was treated with depilatory cream, then sanitized with 3 alternating scrubs with iodine and alcohol. A rostral-caudal cut approximately 1.5 cm in length was made with sterile skin scissors, providing access to the intraperitoneal cavity. A cylindrical glass-encapsulated radiotelemetry probe (model ER-4000 E-Mitter, Mini Mitter, Bend, OR, USA) was then inserted. These probes measure 15.5 mm×6.5 mm and weigh approximately 1 gram. Incisions were closed (skin layer and muscle layer separately) using reverse cutting 5-0 Vicryl absorbable sutures for the muscle layer and 5-0 nylon suture material for the skin layer. Surgeries were carried out at least 7 days before initiation of experimental conditions, allowing time for incisions to heal and for animals to recover normal body weights. Following surgery, all implanted mice were individually housed in Plexiglas cages within the telemetry room for the duration of all experiments. Implanted transmitters produce activity- and temperature-modulated signals which are sent to a receiver (model ER-4000 Receiver, Mini Mitter Co., Inc.) underneath each cage. Following use, telemetry probes were removed from carcasses, wiped with alcohol swabs, and stored in the disinfectant solution until re-use.\n(§4) At least 7 days after surgical implantation of radiotelemetry probes, mice in their individual home cages were placed atop a telemetry energizer/receiver, which powered probes and transmitted their data to an interfaced computer. Upon initiation of an experimental session, the computer collected two data updates from the probes at 5 min intervals: core temperature (in ° C.) on one channel, and locomotor counts (in arbitrary units, depending on the relative position of the probe atop the receiver) on the other. After at least 60 minutes of baseline data collection, mice were removed from their cages, injected with saline or a given dose of a specific drug, then returned to the home cage 24 hours of data collection.\n(§5) Food and water were always freely available in the home cage. Mice were injected with ascending doses of a given drug, with at least 48 hours separating doses. Because there are few studies of drug effects in BTBR mice, the first drug dose tested occasionally elicited unexpectedly large locomotor effects in these animals. In these cases, smaller drug doses were tested next, after a washout period of at least one full day."}, "BTBR mice [5]": {"tested_on": "BTBR mice", "test": "Radiotelemetry of locomotor activity, BTBR", "assay_type": "in vivo", "conditions": "for pattern of locomotor activity / dose-effect curve: any dose; for locomotor activity: 0 to 240 minutes", "experimental": "as §2, §3, §4, §5"}, "C57 mice [6]": {"tested_on": "C57 mice", "conditions": "mouse, in vivo; for locomotor activity: ip"}, "[7]": {"conditions": "3.0 mg/kg IP, listed as racemic (50/50) MDMA, 3 mg/kg"}}, "note": "Entries after “also recorded” stand apart in the source; their conditions may differ. Read-outs that look alike come from different tables or passages of the source."}
{"smiles": "CNC(C)Cc1ccc2c(c1)OCO2", "note": "(racemic) [racemic MDMA, 1-(1,3-benzodioxol-5-yl)-N-methylpropan-2-amine]", "values": [{"measurement": "novelty preference (time spent with the dummy mouse)", "setting": "BTBR mice [1]", "value": "No dose of racemic MDMA (e.g comparative composition 1) or S(+)-MDMA (e.g comparative composition 3) elicited any effects on novelty preference"}, {"measurement": "sociability (time spent with the stranger mouse vs dummy)", "setting": "C57 mice [2]; 3.0 mg/kg IP, 3 mg/kg", "value": "moderate preference for the stranger over the dummy"}, {"measurement": "sociability (time spent with the stranger mouse vs dummy)", "setting": "C57 mice [2]; [7]", "value": "elicit significant effects on sociability"}, {"measurement": "sociability (time spent with the stranger mouse vs dummy)", "setting": "C57 mice [2]; various doses IP", "value": "dose-dependent increase in time spent with the stranger mouse"}, {"measurement": "social novelty preference (new stranger mouse vs familiar mouse)", "setting": "C57 mice [3]; 3.0 mg/kg IP, 3 mg/kg", "value": "strong preference for the stranger over the now familiar mouse"}, {"measurement": "social novelty preference (new stranger mouse vs familiar mouse)", "setting": "C57 mice [3]; [7]", "value": "elicit significant effects on sociability"}, {"measurement": "social novelty preference (new stranger mouse vs familiar mouse)", "setting": "C57 mice [3]; various doses IP", "value": "dose-dependent increase in time spent with the stranger mouse"}, {"measurement": "social novelty preference (new stranger mouse vs familiar mouse)", "setting": "C57 mice [3]; various doses IP, listed as Racemic MDMA", "value": "bi-phasic dose-response preference for stranger mouse over familiar mouse, with maximum preference documented at 3 mg/kg dose"}, {"measurement": "effect on core temperature", "setting": "BTBR mice [4]; 30 mg/kg IP", "value": "results in an increase in temperature but is not as significant as S-MDMA"}, {"measurement": "rise in core temperature", "setting": "BTBR mice [4]; 56 mg/kg IP", "value": "~2", "unit": "degrees C."}, {"measurement": "effect on core temperature", "setting": "BTBR mice [4]; various/increasing doses IP", "value": "gradual increase in core temperature"}, {"measurement": "effect on core temperature", "setting": "BTBR mice [4]; various/increasing doses IP, listed as racemic compositions of MDMA", "value": "dose dependent increase in temperature"}, {"measurement": "pattern of locomotor activity / dose-effect curve", "setting": "BTBR mice [5]", "value": "No evidence of motor stereotypy; also recorded: does not follow this biphasic pattern"}, {"measurement": "locomotor dose-effect curve (total ambulatory activity)", "setting": "C57 mice [6]", "value": "classical “inverted U-shaped” dose-effect curve"}, {"measurement": "pattern of locomotor activity across the time course", "setting": "C57 mice [6]", "value": "consistent with motor stereotypy"}, {"measurement": "stereotypy or hyperstimulation of mice", "setting": "C57 mice [6]", "value": "stereotypy or hyperstimulation of mice is seen"}, {"measurement": "locomotor activity", "setting": "C57 mice [6]; 10 mg/kg", "value": "lesser hyperactivity is observed"}, {"measurement": "locomotor activity", "setting": "C57 mice [6]; 30 mg/kg", "value": "elicit more activity than the pure S(+)-MDMA"}]}
{"smiles": "CN[C@@H](C)Cc1ccc2c(c1)OCO2", "note": "[S(+)-MDMA, (2S)-1-(1,3-benzodioxol-5-yl)-N-methylpropan-2-amine]", "values": [{"measurement": "novelty preference (time spent with the dummy mouse)", "setting": "BTBR mice [1]", "value": "No dose of racemic MDMA (e.g comparative composition 1) or S(+)-MDMA (e.g comparative composition 3) elicited any effects on novelty preference"}, {"measurement": "sociability (time spent with the stranger mouse vs dummy)", "setting": "C57 mice [2]; 3.0 mg/kg IP", "value": "not different from saline"}, {"measurement": "sociability (time spent with the stranger mouse vs dummy)", "setting": "C57 mice [2]; various doses IP", "value": "no systematic effects on sociability"}, {"measurement": "social novelty preference (new stranger mouse vs familiar mouse)", "setting": "C57 mice [3]; 3.0 mg/kg IP", "value": "not different from saline"}, {"measurement": "social novelty preference (new stranger mouse vs familiar mouse)", "setting": "C57 mice [3]; 3.0 mg/kg and 5.6 mg/kg IP", "value": "does not elicit any substantial preference for the stranger mouse"}, {"measurement": "social novelty preference (new stranger mouse vs familiar mouse)", "setting": "C57 mice [3]; various doses IP", "value": "no systematic effects on social novelty preference"}, {"measurement": "effect on core temperature", "setting": "BTBR mice [4]; 10 mg/kg IP, 10 mg/kg", "value": "elicited a similar increase in temperature"}, {"measurement": "effect on core temperature", "setting": "BTBR mice [4]; 10 mg/kg IP, listed as S-MDMA, 10 mg/kg", "value": "did not differ much from that observed with Racemic MDMA"}, {"measurement": "jump in core temperature", "setting": "BTBR mice [4]; 18 mg/kg i.p", "value": "greater than that observed by administration of 56 mg/kg i.p of Racemic MDMA"}, {"measurement": "effect on core temperature", "setting": "BTBR mice [4]; 30 mg/kg IP, 30 mg/kg", "value": "elicited a large hyperthermic response"}, {"measurement": "effect on core temperature", "setting": "BTBR mice [4]; 30 mg/kg IP, listed as S-MDMA, 30 mg/kg", "value": "strong hyperthermic response"}, {"measurement": "effect on core temperature", "setting": "BTBR mice [4]; various/increasing doses IP", "value": "dose dependent increase in temperature"}, {"measurement": "effect on core temperature", "setting": "BTBR mice [4]; various/increasing doses IP, listed as S-MDMA", "value": "dose-dependent increase in temperature"}, {"measurement": "locomotor activity", "setting": "BTBR mice [5]; 10 mg/kg IP", "value": "elicited a substantially large stimulation in motor activity"}, {"measurement": "locomotor activity", "setting": "BTBR mice [5]; 30 mg/kg IP", "value": "elicited a large stimulation in motor activity"}, {"measurement": "pattern of locomotor activity / dose-effect curve", "setting": "BTBR mice [5]", "value": "No evidence of motor stereotypy"}, {"measurement": "locomotor dose-effect curve (total ambulatory activity)", "setting": "C57 mice [6]", "value": "classical “inverted U-shaped” dose-effect curve"}, {"measurement": "stereotypy or hyperstimulation of mice", "setting": "C57 mice [6]", "value": "stereotypy or hyperstimulation of mice is seen"}, {"measurement": "locomotor activity", "setting": "C57 mice [6]; 10 mg/kg", "value": "elicits the greatest locomotor stimulation"}]}
